Experimental data published in patent EP0072352B1, “Benzazepin-2-ones, process for their preparation, pharmaceutical preparations containing these compounds and the compounds for therapeutical use” (CIBA-GEIGY AG, priority 1981, dated 1983).

Test system: spontan hypertensiven Ratten
Experiment: Antihypertensive effect in spontaneously hypertensive rats, indirect measurement of systolic blood pressure (tail cuff), oral dosing
Format: in vivo
Details: 3 mg/kg p. o., once daily for four days, average, measured 2 and 4 h after dosing on the last two days
Source text: Die in vivo blutdrucksenkende Wirkung wird entweder direkt mit einem Katheter, der in die femorale Arterie des Versuchstieres eingeführt ist, oder indirekt durch Sphygmomanometrie am Rattenschwanz, und einem Übertragungsinstrument registriert. Der Blutdruck wird vor und nach der Verabreichung des Wirkstoffes in mm Hg bestimmt.
So sind die antihypertensiven Wirkungen in spontan hypertensiven Ratten durch indirekte Messung des systolischen Blutdrucks nachweisbar. Nicht narkotisierte Ratten werden einzeln in Käfigen, welche ihre Bewegung einschränken, in eine leicht geheizte Kammer gebracht. Ein Puls-Sensor wird innerhalb einer aufblasbaren Manschette am Schwanz jeder Ratte angebracht. Die Manschette wird aufgeblasen, um die Schwanz-Arterie zu schließen. Der Druck in der Manschette wird kontinuierlich reduziert, und der systolische Druck entspricht demjenigen Druck in der Manschette, bei welchem die Pulswellen wieder auftreten. Nach der Registrierung von Kontrollwerten des Blutdrucks und der Herzfrequenz werden die Testverbindungen peroral einmal täglich an vier aufeinanderfolgenden Tagen verabreicht. Zusätzliche Blutdruckmessungen werden üblicherweise nach 2,0, 4,0 und 23,5 Stunden nach jeder täglichen Dosis vorgenommen. Die Werte werden mit denjenigen von Ratten, welche lediglich mit der Trägersubstanz behandelt worden sind, verglichen. […]

For `CCOC(=O)[C@H](CCc1ccccc1)N[C@H]1CCc2ccccc2N(CC(=O)O)C1=O` (racemic) [Beispiel 1, 1-Carboxymethyl-3-(1-äthoxycarbonyl-3-phenylpropylamino)-2,3,4,5-tetrahydro-1H-[1] benzazepin-2-on], the “Blutdruck gesenkt (antihypertensiver Effekt)” value was 40 mm Hg.
